Data reported in patent publication US20230123334A1, “AMINO LIPID COMPOUND, PREPARATION METHOD THEREFOR, AND APPLICATION THEREOF” (SHENZHEN SHENXIN BIOTECHNOLOGY CO., LTD., priority 2020, published 2023).

Tested on: HEK293 cells
Assay: Preliminary screening as DNA vectors, GFP transfection of HEK293 cells
Assay type: cell-based
Conditions: amino lipid/DOPE liposome with 75 ng plasmid DNA (psin-EGFP-IRES-Puro); number of GFP-expressing cells divided by total nuclei (Hoechst)
In short: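 First, amino lipid and DOPE were vortexed in sodium acetate buffer (pH 5.6) to form liposomes. Next, these were held with 75 ng EGFP plasmid at room temperature for 30 min. Finally, HEK293 cells were added, cultured at 37° C., Hoechst-stained, and GFP+/total nuclei scored by imaging.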

Compound | Absolute DNA transfection efficiency in HEK293 cells [%]
CCCCCCCCCCCCCCCCNc1nc(NCC2CCN(C)CC2)nc(SCCCCCCCCCCCCCCC)n1 [S15N16 D10] | 0.3
CCCCCCCCCCCCCNc1nc(NCCCN2CCOCC2)nc(SCCCCCCC)n1 [S7N13 D8] | 17.3
CCCCCCCCCCCCCCCCCCNc1nc(NCCN2CCN(C)CC2)nc(SCCCCCCCCC)n1 [S9N18 D5] | 22.9
CCCCCCCCCCCCN(CCCCCCCCCCCC)c1nc(NCCN(C)C)nc(SCCCCCC)n1 [S6^2N12 D1] | 0.4
CCCCCCCCCCCCCCCCNc1nc(NCCN2CCOCC2)nc(SCCCCCCCCCCCCCCCC)n1 [S16N16 D2] | 0.0
CCCCCCCCCCCCCCSc1nc(NCCCCCCCCCCC)nc(NCCCN(C)C)n1 [S14N11 D6] | 17.0
CCCCCCCCCCCNc1nc(NCCCN2CCOCC2)nc(SCCCCCCCCC)n1 [S9N11 D8] | 26.8
CCCCCCCCSc1nc(NCCN(C)C)nc(SCCCCCCCC)n1 [S8S8 D1] | 17.9
CCCCCCCCCCCCCCCCSc1nc(NCCCCCCCCCCC)nc(NCCCN2CCOCC2)n1 [S16N11 D8] | 5.0
CCCCCCCCCCCCNc1nc(NCCN2CCOCC2)nc(SCCCCCCC)n1 [S7N12 D2] | 25.6
CCCCCCCCCCCCCCSc1nc(NCCCCCCCCC)nc(NCCN2CCN(C)CC2)n1 [S14N9 D5] | 16.9
CCCCCCCCCCCCNc1nc(NCCN2CCCC2)nc(SCCCCCCC)n1 [S7N12 D3] | 17.4
CCCCCCCCCCCCCCCNc1nc(NCCN2CCOCC2)nc(SCCCCCCCCCCC)n1 [S11N15 D2] | 1.3
CCCCCCCCCCCCN(CCCCCCCCCCCC)c1nc(NCCN(C)C)nc(SCCCCCCC)n1 [S7^2N12 D1] | 0.2
CCCCCCCCCCCCSc1nc(NCCCCCC)nc(NCCN2CCOCC2)n1 [S12N6 D2] | 0.1
CCCCCCCCCCCCCCCNc1nc(NCCN2CCOCC2)nc(SCCCCCCCCCC)n1 [S10N15 D2] | 1.4
CCCCCCNc1nc(NCCN(C)C)nc(SCCCCCC)n1 [S6N6 D1] | 0.1
CCCCCCSc1nc(NCCN2CCCC2)nc(SCCCCCC)n1 [S6S6 D3] | 4.4
CCCCCCCCCCCCCCCCSc1nc(NCCCCCCCC)nc(NCCN(C)C)n1 [S16N8 D1] | 10.0
CCCCCCCCCCCCSc1nc(NCCCN(C)C)nc(SCCCCCCC)n1 [S7S12 D6] | 11.7
CCCCCCCCCSc1nc(NCCCCCCC)nc(NCCN2CCN(C)CC2)n1 [S9N7 D5] | 18.3
CCCCCCCCNc1nc(NCCN2CCCCC2)nc(SCCCCCCCC)n1 [S8N8 D4] | 2.9
CCCCCCCCCCCCCCCCSc1nc(NCCN2CCN(C)CC2)nc(SCCCCCCC)n1 [S7S16 D5] | 7.9
CCCCCCCCCCCCCNc1nc(NCCN2CCCCC2)nc(SCCCCCCCCCC)n1 [S10N13 D4] | 4.2

Compound | Absolute DNA transfection efficiency in HEK293 cells [%]
CCCCCCCCCCCCCCCCSc1nc(NCCCCCCCCC)nc(NCCN2CCCC2)n1 [S16N9 D3] | 13.7
CCCCCCCCSc1nc(NCCCN(C)C)nc(SCCCCCC)n1 [S6S8 D6] | 7.4
CCCCCCCCCCCCCCCCSc1nc(NCCCCCCCCCCCC)nc(NCCN2CCN(C)CC2)n1 [S16N12 D5] | 1.9
CCCCCCCCCCCCCCCSc1nc(NCCCCCCCCCCCC)nc(NCCN2CCCC2)n1 [S15N12 D3] | 11.5
CCCCCCCCCCCSc1nc(NCCCCCCCC)nc(NCCCN2CCOCC2)n1 [S11N8 D8] | 12.2
CCCCCCNc1nc(NCCN2CCN(C)CC2)nc(SCCCCCC)n1 [S6N6 D5] | 0.0
CCCCCCCCCCCCSc1nc(NCCCCCCCCCCC)nc(NCCN2CCN(C)CC2)n1 [S12N11 D5] | 8.0
CCCCCCCCCCCCCCCCCCSc1nc(NCCN2CCOCC2)nc(SCCCCCCC)n1 [S7S18 D2] | 7.1
CCCCCCCCCCCCCCCCCCNc1nc(NCCCN(C)C)nc(SCCCCCCC)n1 [S7N18 D6] | 18.4
CCCCCCCCCCCCCCSc1nc(NCC2CCN(C)CC2)nc(SCCCCCCC)n1 [S7S14 D10] | 26.7
CCCCCCCCCCCCSc1nc(NCCN(C)C)nc(SCCCCCC)n1 [S6S12 D1] | 6.3
CCCCCCCCCCCNc1nc(NCCCN2CCOCC2)nc(SCCCCCCCCCCC)n1 [S11N11 D8] | 2.5
CCCCCCCCCCCNc1nc(NCCN2CCOCC2)nc(SCCCCCCCC)n1 [S8N11 D2] | 25.4
CCCCCCCCCCCCCCCCNc1nc(NCCN2CCN(C)CC2)nc(SCCCCCCCCCCCC)n1 [S12N16 D5] | 0.7
CCCCCCCCCCCCCCCCNc1nc(NCCN2CCN(C)CC2)nc(SCCCCCCCCCC)n1 [S10N16 D5] | 3.1
CCCCCCCCCCCCCCCCNc1nc(NCCCN(C)C)nc(SCCCCCCCC)n1 [S8N16 D6] | 3.7
CCCCCCCCCCCCCCCSc1nc(NCCCCCCCC)nc(NCCN(CC)CC)n1 [S15N8 D7] | 6.7
CCCCCCCCCSc1nc(NCCCCCCC)nc(NCCN2CCCCC2)n1 [S9N7 D4] | 21.9
CCCCCCCCCCCCCCSc1nc(NCCCCCCCCCCCCC)nc(NCCN(CC)CC)n1 [S14N13 D7] | 2.8
CCCCCCCCCCCCCCCCNc1nc(NCCN(C)C)nc(SCCCCCCCCCCC)n1 [S11N16 D1] | 8.2
CCCCCCCCCCCCCCSc1nc(NCCCCCCCC)nc(NCCN2CCN(C)CC2)n1 [S14N8 D5] | 19.6
CCCCCCCCCCCCCCCSc1nc(NCCCCCCCC)nc(NCCN(C)C)n1 [S15N8 D1] | 8.9
CCCCCCCCCCCSc1nc(NCCCN(C)C)nc(SCCCCCCCC)n1 [S8S11 D6] | 7.9
CCCCCCCCCCSc1nc(NCCN2CCCC2)nc(SCCCCCC)n1 [S6S10 D3] | 4.4

Compound | Absolute DNA transfection efficiency in HEK293 cells [%]
CCCCCCCCCCCCCCCSc1nc(NCCCCCCCCCCCCC)nc(NCCCN2CCOCC2)n1 [S15N13 D8] | 0.2
CCCCCCCCCCCCCCSc1nc(NCCN(CC)CC)nc(N(CCCCCCCCCCCC)CCCCCCCCCCCC)n1 [S14^2N12 D7] | 0.1
CCCCCCCCCCCSc1nc(NCCCCCC)nc(NCCN2CCN(C)CC2)n1 [S11N6 D5] | 21.6
CCCCCCCCCCCCCCCCCCSc1nc(NCCCCCCCCCCCCCCCC)nc(NCCN(C)C)n1 [S18N16 D1] | 0.0
CCCCCCCCCCCCCCSc1nc(NCCCCCCCCCCCCC)nc(NCCN2CCN(C)CC2)n1 [S14N13 D5] | 1.9
CCCCCCCCCCCCCCCSc1nc(NCCN2CCOCC2)nc(SCCCCCCC)n1 [S7S15 D2] | 24.0
CCCCCCCCCCCCCCCCNc1nc(NCCCN2CCN(C)CC2)nc(SCCCCCCCCCCC)n1 [S11N16 D9] | 6.6
CCCCCCCCCCCCCCCNc1nc(NCCN2CCN(C)CC2)nc(SCCCCCCCCCCC)n1 [S11N15 D5] | 9.9
CCCCCCCCCSc1nc(NCCCCCC)nc(NCCN2CCCC2)n1 [S9N6 D3] | 27.0
CCCCCCCCCCCCNc1nc(NCCCN(C)C)nc(SCCCCCCCCC)n1 [S9N12 D6] | 70.5
CCCCCCCCCCCCSc1nc(NCCN2CCN(C)CC2)nc(N(CCCCCCCCCCCC)CCCCCCCCCCCC)n1 [S12^2N12 D5] | 0.3
CCCCCCCCCCCNc1nc(NCCN(CC)CC)nc(SCCCCCCCCC)n1 [S9N11 D7] | 15.7
CCCCCCCCCCCCCCCCCCNc1nc(NCCCN2CCN(C)CC2)nc(SCCCCCCCCCCCCCC)n1 [S14N18 D9] | 0.3
CCCCCCCCCCSc1nc(NCCCCCC)nc(NCCN2CCCCC2)n1 [S10N6 D4] | 5.7
CCCCCCCCCCCCNc1nc(NCCN(CC)CC)nc(SCCCCCCCCCCC)n1 [S11N12 D7] | 9.8
CCCCCCCCCCCCCCCNc1nc(NCCN(CC)CC)nc(SCCCCCCCCCCC)n1 [S11N15 D7] | 5.2
CCCCCCCCCCCSc1nc(NCCN(C)C)nc(SCCCCCCC)n1 [S7S11 D1] | 10.8
CCCCCCCCCCCCCCCNc1nc(NCCN(CC)CC)nc(SCCCCCC)n1 [S6N15 D7] | 1.2
CCCCCCCCCCCCCCCCSc1nc(NCCCCCCCCCCCC)nc(NCCCN2CCOCC2)n1 [S16N12 D8] | 0.0
CCCCCCCCCCCCCCCSc1nc(NCCCN2CCOCC2)nc(SCCCCCCC)n1 [S7S15 D8] | 10.9
CCCCCCSc1nc(NCC2CCN(C)CC2)nc(SCCCCCC)n1 [S6S6 D10] | 21.6
CCCCCCCCCCCCCCCCCCSc1nc(NCCCCCCCCCCCCCCCC)nc(NCCN2CCOCC2)n1 [S18N16 D2] | 0.0
CCCCCCCCCCCCCCCSc1nc(NCCN(CC)CC)nc(SCCCCCCC)n1 [S7S15 D7] | 5.0
CCCCCCCCCCCCSc1nc(NCCN(CC)CC)nc(N(CCCCCCCCCCCC)CCCCCCCCCCCC)n1 [S12^2N12 D7] | 0.1
